From ChEMBL document CHEMBL1201862, “PubChem BioAssay data set” (2004)
Active and inactive are the calls of the source.

Columns and labels:
[1] = biological target: Glyceraldehyde-3-phosphate dehydrogenase (Homo sapiens, UniProt P04406)
Bcl-2-related protein A1 [2] = biological target: T1, Bcl-2-related protein A1 (Mus musculus, UniProt Q07440); assay: small-molecule antagonists of Bfl-1/BH3 interaction – biochemical, TR-FRET, mouse Bfl-1, confirmation (AID 621);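 also: TR-FRET binding of GST-Bfl-1 to FITC-labelled Bid peptide via terbium antibody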
T1 sequence (Q07440 whole entry): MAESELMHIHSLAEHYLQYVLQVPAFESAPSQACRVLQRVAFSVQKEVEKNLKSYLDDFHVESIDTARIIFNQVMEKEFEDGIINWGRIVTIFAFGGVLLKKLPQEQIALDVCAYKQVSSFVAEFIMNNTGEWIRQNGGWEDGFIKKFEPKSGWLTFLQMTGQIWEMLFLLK

Bcl-2-related protein A1 [3] = biological target: T1, Bcl-2-related protein A1; assay: Bfl-1 binding inhibitors, SAR follow-up, biochemical, fluorescence polarization (AID 1070)
[4] = Trypanosoma cruzi growth suppression in host cells – NIH3T3 host cells, beta-gal luminescence, confirmation (AID 2044); type: functional, cell-based;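 also: intracellular parasites grown in NIH/3T3 mouse fibroblasts as host cells; luminescent beta-galactosidase reporter signal from transgenic T. cruzi replicating inside host cells; inhibitors lower the luminescence signal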
[5] = NIH3T3 cell viability loss – ATP luminescence, mouse fibroblasts, counter-screen, dose response (AID 2010); type: functional, cell-based;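 also: cells exposed to compound for about 90 hours before reading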
[6] = biological target: T2, Short transient receptor potential channel 4 (Mus musculus, UniProt Q9QUQ5); assay: calcium entry via TRPC4 opening agents – cell-based, HEK293 TRPC4/mu-opioid, Fluo-4 calcium, dose response (AID 434937); type: functional
T2 sequence (Q9QUQ5 whole entry): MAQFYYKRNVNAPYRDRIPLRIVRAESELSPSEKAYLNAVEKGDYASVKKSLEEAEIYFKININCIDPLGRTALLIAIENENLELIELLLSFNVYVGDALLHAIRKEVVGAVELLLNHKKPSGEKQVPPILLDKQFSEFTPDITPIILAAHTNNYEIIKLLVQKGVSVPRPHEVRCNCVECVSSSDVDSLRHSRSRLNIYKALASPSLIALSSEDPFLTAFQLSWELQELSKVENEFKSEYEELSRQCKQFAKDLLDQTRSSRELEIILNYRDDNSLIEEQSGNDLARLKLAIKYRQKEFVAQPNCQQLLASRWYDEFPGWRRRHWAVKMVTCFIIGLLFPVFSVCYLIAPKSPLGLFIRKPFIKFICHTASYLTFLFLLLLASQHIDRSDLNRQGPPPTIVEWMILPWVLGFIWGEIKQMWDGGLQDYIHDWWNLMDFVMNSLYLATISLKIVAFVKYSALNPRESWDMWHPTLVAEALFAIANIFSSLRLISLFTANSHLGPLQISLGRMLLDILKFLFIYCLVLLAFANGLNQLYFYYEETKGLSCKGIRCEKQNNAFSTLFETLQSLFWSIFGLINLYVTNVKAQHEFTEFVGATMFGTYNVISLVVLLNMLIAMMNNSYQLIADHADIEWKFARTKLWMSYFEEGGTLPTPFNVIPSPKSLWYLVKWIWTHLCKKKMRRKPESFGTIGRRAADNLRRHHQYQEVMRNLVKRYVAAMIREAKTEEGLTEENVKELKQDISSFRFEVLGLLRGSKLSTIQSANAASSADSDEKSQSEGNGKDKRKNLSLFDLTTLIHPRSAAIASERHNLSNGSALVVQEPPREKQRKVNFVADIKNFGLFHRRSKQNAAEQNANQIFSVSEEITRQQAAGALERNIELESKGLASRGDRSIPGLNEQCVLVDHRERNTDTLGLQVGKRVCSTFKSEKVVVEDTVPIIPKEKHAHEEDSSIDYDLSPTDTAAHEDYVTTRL

[7] = biological target: T2, Short transient receptor potential channel 4; assay: block of DAMGO-driven TRPC4 calcium entry – cell-based, HEK293 TRPC4/mu-opioid, Fluo-4 calcium, dose response (AID 434942); type: functional;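 also: potency of inhibitors blocking the TRPC4 calcium response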
Aminopeptidase N = biological target: T3, Aminopeptidase N (Plasmodium falciparum FcB1/Columbia, UniProt O96935); assay: malaria alanyl aminopeptidase activity blockers – biochemical, fluorogenic H-Leu-NHMec substrate, 1536-well (AID 1445); design: species or system Plasmodium falciparum 3D7, 3D7
T3 sequence (O96935 whole entry): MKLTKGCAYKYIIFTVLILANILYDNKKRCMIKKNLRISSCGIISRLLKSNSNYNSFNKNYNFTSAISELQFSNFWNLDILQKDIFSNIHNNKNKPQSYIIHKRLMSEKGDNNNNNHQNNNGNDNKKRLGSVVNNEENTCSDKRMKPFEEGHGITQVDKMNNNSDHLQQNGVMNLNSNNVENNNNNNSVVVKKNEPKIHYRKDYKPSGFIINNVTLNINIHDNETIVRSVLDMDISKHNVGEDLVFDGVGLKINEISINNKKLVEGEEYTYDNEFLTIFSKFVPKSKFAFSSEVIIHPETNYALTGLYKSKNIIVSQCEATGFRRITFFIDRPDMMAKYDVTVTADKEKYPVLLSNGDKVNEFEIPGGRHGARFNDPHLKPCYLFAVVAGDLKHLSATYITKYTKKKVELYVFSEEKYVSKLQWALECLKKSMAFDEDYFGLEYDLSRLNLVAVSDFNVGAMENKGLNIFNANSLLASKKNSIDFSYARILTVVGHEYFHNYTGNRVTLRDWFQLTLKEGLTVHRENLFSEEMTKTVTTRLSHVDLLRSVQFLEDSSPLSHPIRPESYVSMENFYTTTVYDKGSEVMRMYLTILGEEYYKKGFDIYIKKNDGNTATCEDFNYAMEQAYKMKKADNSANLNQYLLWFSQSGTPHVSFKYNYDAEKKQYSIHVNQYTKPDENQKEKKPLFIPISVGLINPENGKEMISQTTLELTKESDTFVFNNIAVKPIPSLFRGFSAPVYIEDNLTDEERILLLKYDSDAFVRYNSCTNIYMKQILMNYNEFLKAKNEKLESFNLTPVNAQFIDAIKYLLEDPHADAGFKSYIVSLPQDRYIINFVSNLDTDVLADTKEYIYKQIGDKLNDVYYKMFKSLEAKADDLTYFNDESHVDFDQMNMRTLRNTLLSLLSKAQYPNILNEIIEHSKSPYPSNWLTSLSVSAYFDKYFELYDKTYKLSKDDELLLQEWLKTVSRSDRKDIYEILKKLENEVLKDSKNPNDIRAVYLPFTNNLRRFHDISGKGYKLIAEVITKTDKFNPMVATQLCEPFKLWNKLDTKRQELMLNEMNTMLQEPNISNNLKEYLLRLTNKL

HEK293 [8] = assay: cells; type: functional, cell-based; conditions: Homo sapiens
HEK293 [9] = assay: cells; type: functional, cell-based; conditions: Homo sapiens; remark: listed apart in the source
HEK293 [10] = assay: NOD2 signaling inhibitors in MDP-stimulated cells, cell-based, uHTS, luminescence (AID 2001); type: functional; conditions: Homo sapiens
[11] = biological target: T4, Calpain-2 catalytic subunit (Sus scrofa, UniProt P43367); assay: m-calpain protease blockers, concentration series – biochemical, fluorogenic peptide substrate, dose response (AID 1420); type: functional
T4 sequence (P43367 whole entry): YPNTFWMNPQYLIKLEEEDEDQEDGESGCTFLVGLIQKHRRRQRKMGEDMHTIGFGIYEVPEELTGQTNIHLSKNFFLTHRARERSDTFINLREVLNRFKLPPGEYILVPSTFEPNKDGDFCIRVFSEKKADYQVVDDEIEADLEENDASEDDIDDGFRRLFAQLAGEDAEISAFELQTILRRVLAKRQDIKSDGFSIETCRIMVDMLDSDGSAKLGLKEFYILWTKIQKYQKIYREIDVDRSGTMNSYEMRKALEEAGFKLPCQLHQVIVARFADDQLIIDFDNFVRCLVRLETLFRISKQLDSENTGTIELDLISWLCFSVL

Genome polyprotein = Genome polyprotein (dengue virus type 2, UniProt P29990); assay: flavivirus cap methylation enzyme inhibition – biochemical, confirmation dose response, primary screen (AID 588689); type: functional
Chain of Genome polyprotein (P29990 2492-3391 limits assumed): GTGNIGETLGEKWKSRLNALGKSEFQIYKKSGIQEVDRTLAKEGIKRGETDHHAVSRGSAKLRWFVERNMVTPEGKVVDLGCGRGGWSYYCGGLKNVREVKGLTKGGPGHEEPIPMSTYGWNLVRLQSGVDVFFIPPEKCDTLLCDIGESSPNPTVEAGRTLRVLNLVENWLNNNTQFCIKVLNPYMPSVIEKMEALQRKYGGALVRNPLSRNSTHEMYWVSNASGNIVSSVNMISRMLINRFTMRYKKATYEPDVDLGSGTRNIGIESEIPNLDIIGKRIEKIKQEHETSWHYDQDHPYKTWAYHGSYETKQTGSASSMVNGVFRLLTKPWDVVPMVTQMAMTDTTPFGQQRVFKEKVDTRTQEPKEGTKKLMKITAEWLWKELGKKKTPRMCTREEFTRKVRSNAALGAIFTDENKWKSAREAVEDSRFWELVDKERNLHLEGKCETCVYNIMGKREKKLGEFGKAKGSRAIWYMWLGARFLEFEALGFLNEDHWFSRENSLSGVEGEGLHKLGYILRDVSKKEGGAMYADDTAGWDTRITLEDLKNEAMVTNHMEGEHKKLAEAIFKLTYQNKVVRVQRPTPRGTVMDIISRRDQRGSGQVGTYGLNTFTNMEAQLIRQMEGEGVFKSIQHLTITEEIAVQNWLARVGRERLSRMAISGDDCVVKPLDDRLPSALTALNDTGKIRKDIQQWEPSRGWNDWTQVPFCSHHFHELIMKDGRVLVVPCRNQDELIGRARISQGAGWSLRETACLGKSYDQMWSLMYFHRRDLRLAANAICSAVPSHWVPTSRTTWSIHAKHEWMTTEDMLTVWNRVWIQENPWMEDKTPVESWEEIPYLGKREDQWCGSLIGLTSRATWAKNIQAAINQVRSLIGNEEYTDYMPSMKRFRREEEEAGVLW

Cytochrome P450 2D6 = Cytochrome P450 2D6 (Homo sapiens, UniProt P10635);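 also: CYP2D6 member of a cytochrome P450 panel assay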
Chain of Cytochrome P450 2D6 (P10635 whole entry): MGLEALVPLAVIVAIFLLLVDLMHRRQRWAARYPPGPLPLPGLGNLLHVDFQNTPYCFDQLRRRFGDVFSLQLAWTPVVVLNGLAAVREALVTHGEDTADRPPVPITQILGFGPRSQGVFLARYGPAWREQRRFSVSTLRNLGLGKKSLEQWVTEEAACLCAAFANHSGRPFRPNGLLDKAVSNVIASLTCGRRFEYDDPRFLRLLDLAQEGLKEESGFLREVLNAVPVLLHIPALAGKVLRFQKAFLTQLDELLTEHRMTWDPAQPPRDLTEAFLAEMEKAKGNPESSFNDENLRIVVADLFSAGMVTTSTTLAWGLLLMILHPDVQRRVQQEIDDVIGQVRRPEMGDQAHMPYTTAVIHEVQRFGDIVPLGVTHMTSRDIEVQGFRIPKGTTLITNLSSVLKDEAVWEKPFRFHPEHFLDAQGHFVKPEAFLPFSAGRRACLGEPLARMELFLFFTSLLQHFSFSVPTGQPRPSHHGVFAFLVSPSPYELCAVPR

Cytochrome P450 1A2 = biological target: T5, Cytochrome P450 1A2 (Homo sapiens, UniProt P05177);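 also: PubChem cytochrome P450 panel assay, CYP1A2 panel member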
T5 sequence (P05177 whole entry): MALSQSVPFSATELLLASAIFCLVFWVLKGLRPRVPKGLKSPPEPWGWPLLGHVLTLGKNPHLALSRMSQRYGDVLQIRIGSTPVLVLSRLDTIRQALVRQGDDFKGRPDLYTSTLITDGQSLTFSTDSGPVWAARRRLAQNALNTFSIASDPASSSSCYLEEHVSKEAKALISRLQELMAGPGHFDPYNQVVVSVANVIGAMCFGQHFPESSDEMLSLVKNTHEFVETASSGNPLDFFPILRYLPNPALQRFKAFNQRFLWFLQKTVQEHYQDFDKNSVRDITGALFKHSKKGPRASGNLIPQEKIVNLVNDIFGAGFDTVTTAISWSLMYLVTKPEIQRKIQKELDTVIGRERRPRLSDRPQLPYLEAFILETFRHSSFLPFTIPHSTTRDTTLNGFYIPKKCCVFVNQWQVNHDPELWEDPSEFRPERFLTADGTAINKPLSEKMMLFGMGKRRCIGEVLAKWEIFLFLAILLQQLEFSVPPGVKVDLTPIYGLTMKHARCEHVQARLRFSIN

[12] = tested on: Streptococcus sp. 'group A'; assay: Streptococcus pyogenes SK(-)GAS viability under kanamycin – luminescence, BacTiterGlo, confirmation, counter-screen for streptokinase expression inhibitor project, dose response (AID 1900); type: functional, organism-based
Streptokinase A = biological target: T6, Streptokinase A (Streptococcus pyogenes serotype M1, UniProt P10520); assay: viability-normalized secreted streptokinase activity reduction – plasminogen activation absorbance, OD405, dose response (AID 1914); type: functional, Streptococcus pyogenes M1 GAS;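 also: secreted streptokinase activity via plasminogen activation per viability signal from cell pellet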
T6 sequence (P10520 whole entry): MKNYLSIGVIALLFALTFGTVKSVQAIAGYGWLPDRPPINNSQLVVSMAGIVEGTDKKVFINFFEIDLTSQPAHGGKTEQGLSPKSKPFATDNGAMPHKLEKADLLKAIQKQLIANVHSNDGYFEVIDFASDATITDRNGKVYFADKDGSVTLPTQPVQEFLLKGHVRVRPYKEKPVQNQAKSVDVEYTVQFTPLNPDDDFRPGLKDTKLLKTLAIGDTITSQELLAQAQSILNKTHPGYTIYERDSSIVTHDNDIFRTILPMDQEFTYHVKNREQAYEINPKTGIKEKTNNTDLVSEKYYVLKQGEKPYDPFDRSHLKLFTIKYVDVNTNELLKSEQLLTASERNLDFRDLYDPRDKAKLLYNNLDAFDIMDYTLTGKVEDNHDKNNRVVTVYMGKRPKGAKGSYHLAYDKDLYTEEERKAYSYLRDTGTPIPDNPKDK

[13] = biological target: Induced myeloid leukemia cell differentiation protein Mcl-1 (Homo sapiens, UniProt Q07820); type: functional
Chain of Induced myeloid leukemia cell differentiation protein Mcl-1 (Q07820 whole entry): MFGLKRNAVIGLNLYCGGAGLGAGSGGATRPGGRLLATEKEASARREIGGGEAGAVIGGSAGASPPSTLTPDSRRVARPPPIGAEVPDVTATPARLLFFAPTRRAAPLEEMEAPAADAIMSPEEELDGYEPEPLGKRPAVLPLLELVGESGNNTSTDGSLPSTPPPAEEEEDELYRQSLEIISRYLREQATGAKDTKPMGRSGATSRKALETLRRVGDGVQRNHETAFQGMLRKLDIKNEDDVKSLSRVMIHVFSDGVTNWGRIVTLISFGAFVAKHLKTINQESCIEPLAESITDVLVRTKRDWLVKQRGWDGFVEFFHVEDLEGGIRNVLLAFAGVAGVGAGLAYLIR

Streptococcus = assay: GAS UMAA2166 growth inhibition – luminescence, BacTiterGlo, counter-screen for streptokinase expression inhibitor project, dose response (AID 1915); type: functional, organism-based;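 also: potency for reduction of bacterial viability or growth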
[14] = biological target: T7, Microphthalmia-associated transcription factor (Homo sapiens, UniProt O75030); assay: reducers of TRPM1 reporter luminescence, concentration series – cell-based, SK-MEL-5, cherry-picked, set 3, MITF inhibitor project, dose response (AID 493073); type: functional;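 also: SK-MEL-5 melanoma cells with luciferase driven by the MITF target TRPM1 promoter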
T7 sequence (O75030 whole entry): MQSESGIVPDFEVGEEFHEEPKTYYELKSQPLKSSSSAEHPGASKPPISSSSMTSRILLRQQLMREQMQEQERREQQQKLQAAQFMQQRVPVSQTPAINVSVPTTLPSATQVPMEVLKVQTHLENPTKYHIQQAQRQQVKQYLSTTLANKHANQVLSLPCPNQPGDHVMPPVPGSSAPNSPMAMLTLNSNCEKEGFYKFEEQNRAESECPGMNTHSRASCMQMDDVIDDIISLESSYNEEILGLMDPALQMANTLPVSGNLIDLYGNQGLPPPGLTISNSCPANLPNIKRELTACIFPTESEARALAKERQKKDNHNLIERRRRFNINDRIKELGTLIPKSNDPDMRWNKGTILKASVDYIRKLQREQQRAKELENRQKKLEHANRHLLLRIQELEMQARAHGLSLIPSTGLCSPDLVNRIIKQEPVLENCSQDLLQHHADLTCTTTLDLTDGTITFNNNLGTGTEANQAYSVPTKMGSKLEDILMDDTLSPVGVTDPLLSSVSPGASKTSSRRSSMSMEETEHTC

[15] = blockers of bursicon-stimulated LGR2 cAMP reporter – cell-based, HEK293, CRE-luciferase reporter, cherry pick, set 2, dose response (AID 743343); type: functional;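 also: transfected cells were stimulated with diluted bursicon conditioned medium after compound addition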
[16] = blockade of melanocortin 4 receptor signaling – cell-based, plate reader, cherry pick, counter-screen for LGR2 antagonist project, dose response (AID 743444); type: functional;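 also: transfected HEK 293 cells stimulated with alpha-MSH peptide; potency of inhibitors of the alpha-MSH evoked signal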

Chain of Glyceraldehyde-3-phosphate dehydrogenase (P04406 whole entry): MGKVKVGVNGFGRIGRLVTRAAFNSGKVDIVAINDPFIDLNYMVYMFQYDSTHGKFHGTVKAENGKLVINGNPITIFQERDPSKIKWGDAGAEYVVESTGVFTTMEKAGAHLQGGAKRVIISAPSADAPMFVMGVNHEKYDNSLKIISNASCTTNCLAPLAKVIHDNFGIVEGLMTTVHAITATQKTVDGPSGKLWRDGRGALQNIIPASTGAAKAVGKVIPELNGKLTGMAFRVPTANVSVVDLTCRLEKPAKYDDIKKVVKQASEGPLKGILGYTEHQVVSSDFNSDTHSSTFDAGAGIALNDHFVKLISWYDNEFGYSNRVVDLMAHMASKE

CN1CCN(C2=C(Cl)C(=O)N(c3ccccc3Cl)C2=O)CC1
IC50 [1]: > 100 µM (not active)
IC50 (Bcl-2-related protein A1 [2]): 1.45 µM (active)
IC50 (Bcl-2-related protein A1 [3]): 2.16 µM (active)

COc1ccccc1/C=C/CN1CCCC(CCC(=O)NCc2ccccc2F)C1 (stereo not drawn)
EC50 [4]: < 0.1 µM (active)
EC50 [5]: > 60 µM (not active)
EC50 [6]: 0.473 µM (active)
EC50 (cells): 0.025 µM (active)

Clc1ccc(C[n+]2cc(-c3ccccc3)n3c2CCC3)cc1Cl
EC50 [4]: < 0.1 µM (active)
EC50 [5]: > 30 µM (not active)
EC50 [7]: 3.76 µM (active)
EC50 (cells): 0.004 µM (active)

O=C1C(Cl)=C(N2CCOCC2)C(=O)N1c1cccc([N+](=O)[O-])c1
IC50 [1]: > 100 µM (not active)
IC50 (Bcl-2-related protein A1 [2]): 8.21 µM (active)
IC50 (Bcl-2-related protein A1 [3]): 9.68 µM (active)

O=S(=O)(Nc1nc(-c2sccc2Cl)cs1)c1cc(Cl)ccc1Cl
IC50 (Aminopeptidase N): 44.1 µM (active)
IC50 (HEK293 [8]): 10.4 µM (active)
IC50 (HEK293 [9]): 17.7 µM (active)
IC50 (HEK293 [10]): 7.47 µM (active)
IC50 [11]: 5 µM (not active)
IC50 (Genome polyprotein): 41.6 µM (active)
AC50 (Cytochrome P450 2D6): 28.2 µM (inconclusive)
AC50 (Cytochrome P450 1A2): 28.2 µM (inconclusive)

COc1ccc(CCNCc2ccc(OCc3ccc(Cl)nc3)c(OC)c2)cc1OC
EC50 [4]: < 0.1 µM (active)
EC50 [5]: > 60 µM (inconclusive)
EC50 (cells): 0.048 µM (active)

O=C(O)c1ccc(N/N=C/c2ccc(OC(=O)c3cccc(Cl)c3)cc2)cc1
EC50 [12]: 0.834 µM (active)
EC50 (Streptokinase A): > 150 µM (not active)
IC50 [11]: 3.04 µM (not active)
IC50 [13]: 8.08 µM (active)
EC50 (Streptococcus): 15.5 µM (active)
AC50 [14]: 3.21 µM (active)
AC50 [15]: 2.03 µM (active)
AC50 [16]: 1.21 µM (active)
